The record followed here is patent publication US20070010671A1, “Novel quinazoline derivatives and methods of treatment related to the use thereof” (priority 2003, published 2007).

One experiment concerns the target MCH receptor (Homo sapiens, UniProt Q99705). The experiment in a line: High throughput functional screening FLIPR/FDSS6000: inhibition of MCH-evoked intracellular Ca2+ changes. It is filed as cell-based. The settings on record: class by percent of control at 10^-7 M or IC50. Put shortly:
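In a kinetic calcium-flux format, compounds were tested at various concentrations against 50 nM MCH. Fluo4-loaded cells expressing a constitutively active, non-endogenous receptor were imaged at 488/530 nm for 290 s after agonist addition.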
For the compound `CCN(CC)CCCNC(=S)N[C@H]1CC[C@@H](Nc2nc(N(C)C)c3ccccc3n2)CC1` [compound 387], the class was 3 (Class 3: The value of percent of control at 10^−7 M was more than 60% or the value of IC50 was more than 200 nM.).
With `CN(C)c1nc(N[C@H]2CC[C@@H](CNC(=O)Nc3ccc(F)cc3[N+](=O)[O-])CC2)nc2ccccc12` [compound 551, N-[(cis-4-{[4-(dimethylamino)quinazolin-2-yl]amino}cyclohexyl)methyl]-N′-(4-fluoro-2-nitrophenyl)urea], the class is recorded as 2 (Class 2: The value of percent of control at 10^−7 M was from 40% to 60% or the value of IC50 was from 50 nM to 200 nM.).
Same read-out and setting: with `CN(C)c1nc(N[C@H]2CC[C@@H](NC(=O)Nc3ccc(C(C)(C)C)cc3)CC2)nc2ccccc12` [compound 345] the figure was 3 (Class 3: The value of percent of control at 10^−7 M was more than 60% or the value of IC50 was more than 200 nM.); with `CN(C)c1nc(N[C@H]2CC[C@@H](NC(=S)Nc3ccc(F)c(Cl)c3)CC2)nc2ccccc12` [compound 384], 3 (Class 3: The value of percent of control at 10^−7 M was more than 60% or the value of IC50 was more than 200 nM.); with `CN(C)c1nc(N[C@H]2CC[C@@H](CNC(=S)NCc3ccc(F)cc3)CC2)nc2ccccc12` [compound 698], 3 (Class 3: The value of percent of control at 10^−7 M was more than 60% or the value of IC50 was more than 200 nM.).
On the same count and under the same terms, with `Cc1c(Cl)cccc1NC(=S)NC[C@H]1CC[C@@H](Nc2nc(N(C)C)c3ccccc3n2)CC1` [compound 792] the figure was 3 (Class 3: The value of percent of control at 10^−7 M was more than 60% or the value of IC50 was more than 200 nM.); with `CN(C)c1nc(N[C@H]2CC[C@@H](CNC(=S)NC(C)(C)C)CC2)nc2ccccc12` [compound 623], 3 (Class 3: The value of percent of control at 10^−7 M was more than 60% or the value of IC50 was more than 200 nM.).

Still in this experiment, the particulars now being: class by percent of control at 10^-7 M or by IC50; read-out: class.
In the case of `CN(C)c1nc(N[C@H]2CC[C@@H](NC(=O)Nc3cccc([N+](=O)[O-])c3)CC2)nc2ccccc12` [compound 135], the IC50 is greater than 200 nM.
As for `CN(C)c1nc(N[C@H]2CC[C@@H](NC(=O)Nc3ccc(I)cc3)CC2)nc2ccccc12` [compound 826, N-(cis-4-{[4-(dimethylamino)quinazolin-2-yl]amino}cyclohexyl)-N′-(4-iodophenyl)urea], the IC50 is 50 to 200 nM.
For the compound `CN(C)c1nc(N[C@H]2CC[C@@H](NC(=O)Nc3ccc(F)cc3C(F)(F)F)CC2)nc2ccccc12` [compound 823], the IC50 is greater than 200 nM.
On the same count and under the same terms, next, `CN(C)c1nc(N[C@H]2CC[C@@H](NC(=S)NC(C)(C)C)CC2)nc2ccccc12` [compound 199]: greater than 200 nM.
On the same count and under the same terms, with `CN(C)c1nc(N[C@H]2CC[C@@H](NC(=S)Nc3ccc(Cl)cc3)CC2)nc2ccccc12` [compound 164] the figure was 50 to 200 nM.

The experiment is the same for the next values; noted with them: class by percent of control at 10^−7 M or by IC50; read-out: class.
In the case of `CN(C)c1nc(N[C@H]2CC[C@@H](NC(=O)c3cccnc3Oc3ccc(F)c(F)c3)CC2)nc2ccccc12` [Example 1038, 2-(3,4-difluorophenoxy)-N-(cis-4-{[4-(dimethylamino)quinazolin-2-yl]amino}cyclohexyl)nicotinamide], the IC50 is less than 50 nM.
In the case of `CN(C)c1nc(N[C@H]2CC[C@@H](NC(=O)COc3ccc(Cl)cc3Cl)CC2)nc2ccccc12` [Example 1083, 2-(2,4-dichlorophenoxy)-N-(cis-4-{[4-(dimethylamino)quinazolin-2-yl]amino}cyclohexyl)acetamide], the IC50 lay within 50 to 200 nM.
Still for that read-out and setting: next, `CN(C)c1nc(N[C@H]2CC[C@@H](CNC(=O)[C@H](O)c3ccccc3Cl)CC2)nc2ccccc12` [Example 1101, (2R)-2-(2-chlorophenyl)-N-[(cis-4-{[4-(dimethylamino)-quinazolin-2-yl]amino}cyclohexyl)methyl]-2-hydroxyacetamide]: 50 to 200 nM.
